Reference: patent publication US20180163179A1, “METHOD FOR IMPROVEMENT OF DRUG METABOLISM OF HUMAN STEM CELL-DERIVED HEPATOCYTES” (KOREA ADVANCED INSTITUTE OF SCIENCE AND TECHNOLOGY, priority 2015, published 2018)

How the values were obtained:
[1] = system: human embryonic stem cell-derived hepatocytes (hES-Hep); conditions: hES-Hep treated with alcohol, real-time PCR, FIG. 3
Description: Particularly, total RNA was extracted from the adult Hep, Fetal-Hep, and human embryonic stem cell-derived hepatocytes by using Trizol reagent (Invitrogen), followed by cDNA synthesis by using amfi-rivert II cDNA synthesis Master Mix (Gendepot) according to the manufacturer's protocol. Genes in interest were amplified from the transcript by using the primers listed in the Table 1 below by using SYBR green real-time PCR master mix (Toyobo, Japan). The real-time PCR was performed by using Bio-rad CFX96 real-time PCR detection system (Bio-rad). The gene expression level was calculated by ΔΔCt method and by using β-actin as a denominator of the gene expression. Compared with the control gene expression, the obtained value was presented as fold change.

[2] = system: human embryonic stem cell-derived hepatocytes (hES-Hep); conditions: hES-Hep treated with alcohol (200 mM ethanol, 24 hours), without co-culture, FIG. 6
Description: 2×10^5 mouse hepatic stellate cells were cultured on the plate (Corning, USA) with 8 μm holes coated with human embryonic stem cell-derived hepatocytes cultured in DMEM supplemented with 10% FBS. The cell ratio of mouse hepatic stellate cells to human embryonic stem cell-derived hepatocytes was maintained as 1:2. […] 48 hours later, the cells and the medium were collected (FIG. 4).
Human embryonic stem cell-derived hepatocytes were co-cultured with mouse hepatic stellate cells. Then, TUNEL assay was performed to investigate apoptosis therein.
Apoptosis was investigated by using In Situ Cell Death Detection Kit (Fluorescence, Roche). Nucleus of the cell was stained with DAPI, followed by visualization using Leica DMI 4000B automatic vertical microscope system (Germany) equipped with Leica EL6000 and Leica CTR 4000 CCD camera. Computer assisted images were analyzed with Leica Application Suite Advanced Fluorescence (LAS AF, Leica).

[3] = system: human embryonic stem cell-derived hepatocytes (hES-Hep); assay: Gene expression (real time PCR) after the treatment of retinoic acid and ethanol; format: cell-based; conditions: 1 ump all-trans retinoic acid and 0.2 M EtOH, culture 24 hours, FIG. 17
Description: Human embryonic stem cell-derived hepatocytes were treated with retinoic acid and ethanol, followed by investigation of the gene expressions of alcohol metabolism associated enzymes, drug metabolism associated enzymes, and anti-oxidant enzymes.
(§1) Particularly, the human embryonic stem cell-derived hepatocytes differentiated by the same manner as described in Example 1 were treated with 1 ump all-trans retinoic acid and 0.2 M EtOH, followed by culture for 24 hours. Then, real time PCR was performed by the same manner as described in Experimental Example <1-3> in order to examine the expressions of alcohol metabolism associated enzymes (AHD1a, ADH1b, ADH1c, and CYP2E1) and anti-oxidant enzymes (catalase and Mn-SOD).

[4] = system: human embryonic stem cell-derived hepatocytes (hES-Hep); assay: Gene expression (real time PCR) after the treatment of retinoic acid; format: cell-based; conditions: 1 ump all-trans retinoic acid or 9-cis-retinoic acid, culture 12~24 hours, FIG. 16
Description: Human embryonic stem cell-derived hepatocytes were treated with retinoic acid, followed by investigation of the gene expressions of alcohol metabolism associated enzymes, drug metabolism associated enzymes, and anti-oxidant enzymes.
as §1, with “or 9-cis-retinoic acid,” for “and 0.2 M EtOH,”, “12˜24” for “24”, “<1˜3>” for “<1-3>”, “CYP2E1), drug metabolism associated enzymes (CYP2C9, CYP2D6, and CYP3A4),” for “CYP2E1)”

[5] = system: human embryonic stem cell-derived hepatocytes (hES-Hep); assay: Immunocytochemistry (immunofluorescence) of CYP2E1 after the treatment of retinoic acid; format: cell-based; conditions: 1 ump all-trans retinoic acid and 0.2 M EtOH, culture 24 hours, anti-CYP2E1 antibody, FIG. 18
Description: Human embryonic stem cell-derived hepatocytes were treated with retinoic acid, followed by immunofluorescence in order to examine the expression of CYP2E1, the alcohol metabolism associated enzyme.
Particularly, the human embryonic stem cell-derived hepatocytes differentiated by the same manner as described in Example 1 were treated with 1 ump all-trans retinoic acid and 0.2 M EtOH, followed by culture for 24 hours. The cells were fixed with 4% paraformaldehyde. […] Blocking was performed by treating the cells with 5% goat serum at 37° C. for 1 hour. The cells were stained with anti-CYP2E1 antibody (Millipore, Germany).

| SMILES | expression of alcohol metabolism associated enzymes [1] | apoptosis (TUNEL) [2] | expressions of alcohol metabolism associated enzymes (AHD1a, ADH1b, ADH1c, CYP2E1) and anti-oxidant enzymes (catalase, Mn-SOD) [3] | expressions of alcohol metabolism associated enzymes (AHD1a, ADH1b, ADH1c, CYP2E1), drug metabolism associated enzymes (CYP2C9, CYP2D6, CYP3A4) and anti-oxidant enzymes (catalase, Mn-SOD) [4] | expression of CYP2E1 (immunofluorescence) [5] |
| --- | --- | --- | --- | --- | --- |
| CCO [alcohol, ethanol] | up-regulated | increased | – | – | – |
| CC1=C(/C=C/C(C)=C/C=C/C(C)=C/C(=O)O)C(C)(C)CCC1 [retinoic acid] | – | – | all increased | all increased | significantly increased |
